Test results published in patent publication US20250230171A1 (MOMA Therapeutics, Inc., priority 2023, published 2025).

Assays:
[1] = test system: DLD1 WT cells; experiment: 7-day cell viability assay (CellTiter-Glo), DLD1 parental (WT); format: cell-based, human; details: Homo sapiens, DLD-1, 168 h, 7-day CellTiter-Glo, n=2
[2] = test system: DLD1 BRCA2 (−/−) cells; experiment: 7-day cell viability assay (CellTiter-Glo), DLD1 BRCA2 (−/−); format: cell-based, human; details: Homo sapiens, DLD-1, 168 h, 7-day CellTiter-Glo, n=2, read-out: Viability IC50 (uM) DLD1 BRCA2 null
Outline: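 7-day growth assay in DLD1 cells with or without BRCA2; seeding densities chosen to keep log-linear growth. Compound: 10 uM top, 3-fold, 9 points. Endpoint: CTG ATP luminescence at RT.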

Compound	IC50 [1] [µM]	IC50 [2] [µM]
COc1cnc(Cl)cc1-c1cc(C)ncc1C(=O)Nc1nc2c(s1)CN(C(=O)c1nccc(C(F)F)c1C)C2 [Example 976, 2′-chloro-N-(5-(4-(difluoromethyl)-3-methylpicolinoyl)-5,6-dihydro-4H-pyrrolo[3,4-d]thiazol-2-yl)-5′-methoxy-6-methyl-[4,4′-bipyridine]-3-carboxamide]	≥ 10	0.001 to 0.1
COc1nnc(Cl)cc1-c1cc(C)ncc1C(=O)Nc1nc2c(s1)CN(C(=O)c1ccc(C#N)c(C)n1)C2 [Example 981, 4-(6-chloro-3-methoxypyridazin-4-yl)-N-(5-(5-cyano-6-methylpicolinoyl)-5,6-dihydro-4H-pyrrolo[3,4-d]thiazol-2-yl)-6-methylnicotinamide]	≥ 10	0.001 to 0.1
COc1cnc(Cl)cc1-c1cc(C)ncc1C(=O)Nc1nc2c(s1)CN(C(=O)c1ccc(OC(F)F)nc1OC)C2 [Example 985, 2′-chloro-N-(5-(6-(difluoromethoxy)-2-methoxynicotinoyl)-5,6-dihydro-4H-pyrrolo[3,4-d]thiazol-2-yl)-5′-methoxy-6-methyl-[4,4′-bipyridine]-3-carboxamide]	≥ 10	0.001 to 0.1
COc1cnc(Cl)cc1-c1cc(C)ncc1C(=O)Nc1nc2c(s1)CN(C(=O)c1cnc(C(F)(F)F)c(OC)n1)C2 [Example 986, 2′-chloro-5′-methoxy-N-(5-(6-methoxy-5-(trifluoromethyl)pyrazine-2-carbonyl)-5,6-dihydro-4H-pyrrolo[3,4-d]thiazol-2-yl)-6-methyl-[4,4′-bipyridine]-3-carboxamide]	≥ 10	0.001 to 0.1
COc1cnc(Cl)cc1-c1cc(C)ncc1C(=O)Nc1nc2c(s1)CN(C(=O)c1nc(OC)c(C(F)(F)F)cc1C)C2 [Example 987, 2′-chloro-5′-methoxy-N-(5-(6-methoxy-3-methyl-5-(trifluoromethyl)picolinoyl)-5,6-dihydro-4H-pyrrolo[3,4-d]thiazol-2-yl)-6-methyl-[4,4′-bipyridine]-3-carboxamide]	≥ 10	0.001 to 0.1
COc1cnc(Cl)cc1-c1cc(C)ncc1C(=O)Nc1nc2c(s1)CN(C(=O)c1cc(C)c(C(F)(F)F)nc1OC)C2 [Example 989, 2′-chloro-5′-methoxy-N-(5-(2-methoxy-5-methyl-6-(trifluoromethyl)nicotinoyl)-5,6-dihydro-4H-pyrrolo[3,4-d]thiazol-2-yl)-6-methyl-[4,4′-bipyridine]-3-carboxamide]	≥ 10	0.001 to 0.1
COc1cnc(Cl)cc1-c1cc(C)ncc1C(=O)Nc1nc2c(s1)CN(C(=O)c1cnc(OC(F)F)c(C)n1)C2 [Example 990, 2′-chloro-N-(5-(5-(difluoromethoxy)-6-methylpyrazine-2-carbonyl)-5,6-dihydro-4H-pyrrolo[3,4-d]thiazol-2-yl)-5′-methoxy-6-methyl-[4,4′-bipyridine]-3-carboxamide]	≥ 10	0.001 to 0.1
COc1ncc(C(F)(F)F)c(C(=O)N2Cc3nc(NC(=O)c4cnc(C)cc4-c4cc(Cl)ncc4OC)sc3C2)n1 [Example 994, 2′-chloro-5′-methoxy-N-(5-(2-methoxy-5-(trifluoromethyl)pyrimidine-4-carbonyl)-5,6-dihydro-4H-pyrrolo[3,4-d]thiazol-2-yl)-6-methyl-[4,4′-bipyridine]-3-carboxamide]	≥ 10	0.001 to 0.1
COc1cnc(Cl)cc1-c1cc(C)ncc1C(=O)Nc1nc2c(s1)CN(C(=O)c1ccc(OC(F)(F)F)c(C)n1)C2 [Example 995, 2′-chloro-5′-methoxy-6-methyl-N-(5-(6-methyl-5-(trifluoromethoxy)picolinoyl)-5,6-dihydro-4H-pyrrolo[3,4-d]thiazol-2-yl)-[4,4′-bipyridine]-3-carboxamide]	≥ 10	0.001 to 0.1
COc1nc(C(F)(F)F)ccc1C(=O)N1Cc2nc(NC(=O)c3cnc(C)cc3-c3cc(Cl)nnc3OC)sc2C1 [Example 996, 4-(6-chloro-3-methoxypyridazin-4-yl)-N-(5-(2-methoxy-6-(trifluoromethyl)nicotinoyl)-5,6-dihydro-4H-pyrrolo[3,4-d]thiazol-2-yl)-6-methylnicotinamide]	≥ 10	0.001 to 0.1
COc1cnc(Cl)cc1-c1cc(C)ncc1C(=O)Nc1nc2c(s1)CN(C(=O)c1ccc(OC(F)(F)F)c(Cl)n1)C2 [Example 997]	≥ 10	0.001 to 0.1
COc1cnc(Cl)cc1-c1cc(C)ncc1C(=O)Nc1nc2c(s1)CN(C(=O)c1nc(C)cc(C(F)(F)F)c1C)C2 [Example 999, 2′-chloro-N-(5-(3,6-dimethyl-4-(trifluoromethyl)picolinoyl)-5,6-dihydro-4H-pyrrolo[3,4-d]thiazol-2-yl)-5′-methoxy-6-methyl-[4,4′-bipyridine]-3-carboxamide]	≥ 10	0.001 to 0.1
COc1nc(C(F)(F)F)ccc1C(=O)N1Cc2nc(NC(=O)c3cnc(C)cc3-c3cc(Cl)cnc3OC)sc2C1 [Example 1003, 5-chloro-2-methoxy-N-(5-(2-methoxy-6-(trifluoromethyl)nicotinoyl)-5,6-dihydro-4H-pyrrolo[3,4-d]thiazol-2-yl)-6′-methyl-[3,4′-bipyridine]-3′-carboxamide]	≥ 10	0.001 to 0.1
COc1cn2cncc2cc1-c1cc(C)ncc1C(=O)Nc1nc2c(s1)CN(C(=O)c1ccc(C(F)(F)F)nc1OC)C2 [Example 1004]	≥ 10	0.001 to 0.1
COc1ccc(C#N)cc1-c1cc(C)ncc1C(=O)Nc1nc2c(s1)CN(C(=O)c1ccc(C(F)(F)F)nc1OC)C2 [Example 1005, 4-(5-cyano-2-methoxyphenyl)-N-(5-(2-methoxy-6-(trifluoromethyl)nicotinoyl)-5,6-dihydro-4H-pyrrolo[3,4-d]thiazol-2-yl)-6-methylnicotinamide]	≥ 10	0.001 to 0.1
COc1cnc(Cl)cc1-c1cc(C)ncc1C(=O)Nc1nc2c(s1)CN(C(=O)c1nc(C)c(C#N)cc1F)C2 [Example 1006, 2′-chloro-N-(5-(5-cyano-3-fluoro-6-methylpicolinoyl)-5,6-dihydro-4H-pyrrolo[3,4-d]thiazol-2-yl)-5′-methoxy-6-methyl-[4,4′-bipyridine]-3-carboxamide]	≥ 10	0.001 to 0.1
COc1cnc(Cl)cc1-c1cc(C)ncc1C(=O)Nc1nc2c(s1)CN(C(=O)c1ncc(OC(F)(F)F)cc1C)C2 [Example 1007, 2′-chloro-5′-methoxy-6-methyl-N-(5-(3-methyl-5-(trifluoromethoxy)picolinoyl)-5,6-dihydro-4H-pyrrolo[3,4-d]thiazol-2-yl)-[4,4′-bipyridine]-3-carboxamide]	≥ 10	0.001 to 0.1
COc1cnc(Cl)cc1-c1cc(C)ncc1C(=O)Nc1nc2c(s1)CN(C(=O)c1ccc(OC(F)F)c(C)n1)C2 [Example 1008, 2′-chloro-N-(5-(5-(difluoromethoxy)-6-methylpicolinoyl)-5,6-dihydro-4H-pyrrolo[3,4-d]thiazol-2-yl)-5′-methoxy-6-methyl-[4,4′-bipyridine]-3-carboxamide]	≥ 10	0.001 to 0.1
COc1cnc(Cl)cc1-c1cc(C)ncc1C(=O)Nc1nc2c(s1)CN(C(=O)c1cnc(OC(F)(F)F)cc1C)C2 [Example 1009, 2′-chloro-5′-methoxy-6-methyl-N-(5-(4-methyl-6-(trifluoromethoxy)nicotinoyl)-5,6-dihydro-4H-pyrrolo[3,4-d]thiazol-2-yl)-[4,4′-bipyridine]-3-carboxamide]	≥ 10	0.001 to 0.1
COc1cc2c(cnn2C)cc1-c1cc(C)ncc1C(=O)Nc1nc2c(s1)CN(C(=O)c1ccc(C(F)(F)F)nc1OC)C2 [Example 1010, 4-(6-methoxy-1-methyl-1H-indazol-S-yl)-N-(5-(2-methoxy-6-(trifluoromethyl)nicotinoyl)-5,6-dihydro-4H-pyrrolo[3,4-d]thiazol-2-yl)-6-methylnicotinamide]	≥ 10	0.001 to 0.1
COc1cnc(Cl)cc1-c1cc(C)ncc1C(=O)Nc1nc2c(s1)CN(C(=O)c1ncc(C)c(C(F)(F)F)c1C)C2 [Example 1011, 2′-chloro-N-(5-(3,5-dimethyl-4-(trifluoromethyl)picolinoyl)-5,6-dihydro-4H-pyrrolo[3,4-d]thiazol-2-yl)-5′-methoxy-6-methyl-[4,4′-bipyridine]-3-carboxamide]	≥ 10	0.001 to 0.1
COc1cnc(Cl)cc1-c1cc(C)ncc1C(=O)Nc1nc2c(s1)CN(C(=O)c1nc(C(F)(F)F)c(C)cc1C)C2 [Example 1012, 2′-chloro-N-(5-(3,5-dimethyl-6-(trifluoromethyl)picolinoyl)-5,6-dihydro-4H-pyrrolo[3,4-d]thiazol-2-yl)-5′-methoxy-6-methyl-[4,4′-bipyridine]-3-carboxamide]	≥ 10	0.001 to 0.1
COc1cccc(F)c1-c1cc(C)ncc1C(=O)Nc1nc2c(s1)CN(C(=O)c1ccc(C(F)(F)F)nc1OC)C2 [Example 1013, 4-(2-fluoro-6-methoxyphenyl)-N-(5-(2-methoxy-6-(trifluoromethyl)nicotinoyl)-5,6-dihydro-4H-pyrrolo[3,4-d]thiazol-2-yl)-6-methylnicotinamide]	≥ 10	0.001 to 0.1
COc1cnc(Cl)cc1-c1cc(C)ncc1C(=O)Nc1nc2c(s1)CN(C(=O)c1nc(C)c(C(F)(F)F)cc1F)C2 [Example 1014, 2′-chloro-N-(5-(3-fluoro-6-methyl-5-(trifluoromethyl)picolinoyl)-5,6-dihydro-4H-pyrrolo[3,4-d]thiazol-2-yl)-5′-methoxy-6-methyl-[4,4′-bipyridine]-3-carboxamide]	≥ 10	0.001 to 0.1
COc1cnc(Cl)cc1-c1cc(C)ncc1C(=O)Nc1nc2c(s1)CN(C(=O)c1ccc(C#N)c(C(F)F)n1)C2 [Example 1015, 2′-chloro-N-(5-(5-cyano-6-(difluoromethyl)picolinoyl)-5,6-dibydro-4H-pyrrolo[3,4-d]thiazol-2-yl)-5′-methoxy-6-methyl-[4,4′-bipyridine]-3-carboxamide]	≥ 10	0.001 to 0.1
